Results from patent US8142782B2, “EGFR inhibitors promote axon regeneration” (Children's Medical Center Corporation, priority 2005, dated 2012).

How the values were obtained:
CNS neurons = CNS neurons overexpressing SOCS2; cited from earlier work
PC12 cells = conditions: cultured PC12 cells; cited from earlier work
CGNs = assay: Neurite outgrowth assay of P7-9 CGNs on control and myelin inhibitor substrates; format: cell-based; conditions: AG1288 1 μM, AG1478 10 nM, PD168393 10 nM; 20 hr; about 500 neurons per condition
Description: (§1) To confirm the involvement of EGFR kinase in myelin inhibition, we tested two well-characterized EGFR inhibitors with distinctive mechanisms of action, AG1478 and PD168393, and a non-receptor tyrosine kinase inhibitor, AG1288, in the outgrowth assay. P7-9 CGNs were plated on control and immobilized myclin substrate and grown in the presence of AG1288 (1 μM), AG1478 (10 nM) and PD168393 (10 nM) for 20 hr (8, 10). Cells were fixed in paraformaldehyde and stained with anti-tubulin antibody (Tuj1, Covance) to visualize and quantitate neurite length. […] Approximately 500 neurons were counted for each condition from at least 3 independent experiments. All AG1478 and PD168393 treatments on inhibitors were significant. In contrast, none of the treatments affected either the neurite outgrowth on a control poly-D-lysine (PDL) substrate or neuronal survival. Similarly, EGFR kinase inhibitors were able to block myelin neurite outgrowth inhibition in retinal explant cultures grown within a collagen matrix laden with myelin. P5-6 mouse retinas were dissected and cut into small explants on a tissue chopper. The resultant explants were cultured within a collagen matrix with and without myelin (10 μg/ml) in the presence or absence of PD168393 (10 nM) for 72 hrs. Explants were fixed and stained with anti-tubulin antibodies.

[1] = system: dorsal root ganglion (DRG) neurons; assay: Neurite outgrowth assay of DRG neurons on myelin inhibitor substrates; format: cell-based
[2] = system: PC12 cell lines with reduced EGFR signaling; conditions: cited from earlier work
EGFR = EGFR phosphorylation in serum-starved CGNs (immunoblot of neuronal lysates); format: cell-based; conditions: for effect on EGFR phosphorylation subsequent to Nogo-66 treatment: CGNs, Nogo-66-elicited trans-activation; for effect on direct EGFR activation by EGF: EGF stimulation; for induction of EGFR phosphorylation: serum-starved CGNs, Nogo-66 and OMgp at 5 nM
Source text: To examine whether myelin inhibitors directly influence the activity of EGFR in myelin-responsive neurons, we treated serum-starved CGNs with recombinant soluble myelin inhibitors and assessed the EGFR receptor activity.
Previously, we developed a truncated form of NgR that has the ability to bind to ligands but not its signaling co-receptors (8-10, 12). When over-expressed, the truncated receptor can compete with endogenous NgR for coreceptor binding and thus block inhibitor-induced signaling pathways (8-10, 12). […] It is known that in addition to activation by its cognate ligands, EGFR phosphorylation can also result from “trans-activation” by other signaling pathways (22, 23). For example, angiotensin II acts through the angiotensin AT1 receptor, to promote growth of cardiomyocytes via trans-activation of the EGFR and activation of MAP kinase (23). […] We examined whether any of these mechanism(s) are involved in the NgR-dependent EGFR trans-activation by inhibiting specific signaling pathways pharmacologically. […]

[3] = system: neurons of the crushed right internal parietal (RIP) nerve; conditions: pond snail Lymnaea stagnalis; cited from earlier work
[4] = system: lesioned optic nerve fibers; format: in vivo
Source text: The finding that inhibiting neuronal EGFR activity could efficiently block the inhibitory activity of both myelin inhibitors and CSPGs prompted us to examine whether EGFR inhibitors introduced at a CNS lesion site could promote axon regeneration in a model of optic nerve crushing (28). All animal experiments were done in accordance with protocols approved by the institutional animal care and use committee at Schepens Eye Research Institute. Adult mouse optic nerves were exposed behind the eyeball and crushed. Immediately after injury in adult mice, Gelfoam soaked in a solution containing the EGFR inhibitor PD168393 or 0.1% DMSO (control) was placed against the crush site of the nerve and replaced every three days for the first six days of the study. Animals were sacrificed two weeks post injury followed by transcardial perfusion with 4% paraformaldehyde. Optic nerves were cryosectioned at 10 μm and stained with an anti-GAP43 antibody (Chemicon) to detect regenerating axons (28). Little regeneration was detected in DMSO-treated control mice. […] To test the possibility that the observed axon regrowth of retinal ganglion neurons (RGCs) after PD168393 treatment was a consequence of improved cell survival, we stained retinal sections with the anti-tubulin Tuj1 antibody, which stains RGCs in the retina, and counted surviving RGCs. […]

[5] = system: P5-6 mouse retinal explants; assay: Retinal explant outgrowth in collagen matrix laden with myelin; format: cell-based; conditions: myelin 10 μg/ml in collagen matrix; PD168393 10 nM; 72 hrs; Student's t test P<0.0001
Description: as §1

Retinal explants = assay: Retinal explant neurite outgrowth in collagen gels with CSPGs; format: cell-based; conditions: CSPGs 200 ng/ml in collagen gels; PD168393 100 nM; three days
Description: In addition to myelin inhibitors, chondroitin sulfate proteoglycans (CSPGs) in the glial scar represent a major hurdle for regenerating axons. […] Retinal explants were grown in collagen gels with and without CPSGs (200 ng/ml, Chemicon) and PD168393 (100 nM) for three days, fixed and stained with anti-tubulin antibodies. […] In contrast, neither growth cone collapse nor repulsive responses induced by Sema3A were affected by EGFR inhibitors.

[6] = system: cerebellar granule cells (CGNs) on immobilized myelin substrate; assay: Screen of about 400 small molecules in a neurite outgrowth assay of CGNs on immobilized myelin; format: cell-based; conditions: 5×10^4 CGNs per well on immobilized myelin, grown overnight; 10-fold dilutions centered on IC50; scored by two blind observers
Description: We screened approximately 400 well-characterized small molecules in a neurite outgrowth assay of cerebellar granule cells (CGNs) on immobilized myelin substrate. Myelin was immobilized on 96-well plates using published methods (8). Individual compounds from a signaling molecule targeted drug library (TOCRIS) were diluted by 10-fold dilutions centered on their IC50 values, in concentrations typically varying from low nanomolar to micromolar, and transferred to culture wells with 5×10^4 CGNs per well. Cells were grown overnight, fixed in paraformaldehyde, and stained with tubulin antibodies. Outgrowth was independently scored by two blind observers. Positively scored compounds were picked for further verifications. Each compound was evaluated at a 10^4 dilution range centered on its IC50 value to ensure effective concentrations for each drug tested. Several internal controls, including cAMP analogues, phosphodiesterase inhibitors, and a Rho-associated protein kinase inhibitor were identified in the screen, confirming previous findings and validating our approach.

Molecule: N#C/C(=C\c1ccc(O)c(O)c1)C(=O)NCc1ccccc1 [AG490]
- effect on neurite outgrowth promoted by SOCS2 overexpression (CNS neurons): outgrowth is blocked

Molecule: COc1cc2ncnc(Nc3cccc(Cl)c3)c2cc1OC [AG1478]
- effect on versican V1-induced neuronal differentiation (PC12 cells): significantly blocks differentiation
- promotion of neurite outgrowth from CGNs on whole myelin and individual myelin inhibitors (Nogo-66, MAG) (CGNs): effectively promoted neurite outgrowth
- promotion of neurite outgrowth from DRG neurons on whole myelin and individual myelin inhibitors (Nogo-66, MAG) [1]: effectively promoted neurite outgrowth
- cytotoxicity [2]: cytotoxic

Molecule: CC(=O)OCOC(=O)CN(CC(=O)OCOC(C)=O)c1ccccc1OCCOc1ccccc1N(CC(=O)OCOC(C)=O)CC(=O)OCOC(C)=O [BAPTA-AM]
- effect on EGFR phosphorylation subsequent to Nogo-66 treatment (EGFR): significantly decreased EGFR phosphorylation
- effect on direct EGFR activation by EGF (EGFR): neither EGTA nor BAPTA-AM had any effect

Molecule: O=C(O)CN(CCOCCOCCN(CC(=O)O)CC(=O)O)CC(=O)O [EGTA]
- effect on EGFR phosphorylation subsequent to Nogo-66 treatment (EGFR): significantly decreased EGFR phosphorylation
- effect on direct EGFR activation by EGF (EGFR): neither EGTA nor BAPTA-AM had any effect

Molecule: CNC(=O)[C@H](Cc1c[nH]c2ccccc12)NC(=O)[C@@H](CC(=O)NO)CC(C)C [GM6001]
- effect on EGFR phosphorylation subsequent to Nogo-66 treatment (EGFR): had no effect

Molecule: Cn1c2ccccc2c2c3c(c4c5ccccc5n(CCC#N)c4c21)CNC3=O [Go6976]
- effect on EGFR phosphorylation subsequent to Nogo-66 treatment (EGFR): had no effect

Molecule: COc1cc2ncnc(Nc3cccc(Br)c3)c2cc1OC [PD153035]
- effect on EGF-promoted axonal regeneration [3]: counteracts the effect of EGF on axonal regeneration

Molecule: C=CC(=O)Nc1ccc2ncnc(Nc3cccc(Br)c3)c2c1 [PD168393]
- increase in the number of regenerating axons compared to control mice ([4]; adult mice, measured 0.25 mm beyond the injury site, two weeks post injury, GAP43 staining, DMSO control): 9 fold
- effect on RGC survival ([4]; mouse, in vivo): No detectable effect
- promotion of neurite outgrowth from CGNs on whole myelin and individual myelin inhibitors (Nogo-66, MAG) (CGNs): effectively promoted neurite outgrowth
- outgrowth of retinal explants in myelin cultures compared to myelin alone [5]: significantly promoted outgrowth of explants
- neurite length of retinal explants compared to CSPGs alone (Retinal explants): significantly increased neurite length
- promotion of neurite outgrowth from DRG neurons on whole myelin and individual myelin inhibitors (Nogo-66, MAG) [1]: effectively promoted neurite outgrowth

Molecule: CC(C)(C)n1nc(-c2ccc(Cl)cc2)c2c(N)ncnc21 [PP2]
- effect on EGFR phosphorylation subsequent to Nogo-66 treatment (EGFR): had no effect

Molecule: Nc1ncnc2c1cnn2-c1ccccc1 [PP3]
- effect on neurite outgrowth promoted by SOCS2 overexpression (CNS neurons): outgrowth is blocked

Molecule: N#C/C(=C\c1ccc(O)c(O)c1)C(N)=O [Tyrphostin A46]
- ability to counter the effects of myelin inhibition on neurite outgrowth [6]: showed the greatest ability to counter the effects of myelin inhibition

Molecule: N#C/C(=C\c1ccc(O)c(O)c1)C(N)=S [Tyrphostin A47]
- ability to counter the effects of myelin inhibition on neurite outgrowth [6]: showed the greatest ability to counter the effects of myelin inhibition

Molecule: C[C@@H](NC(=O)/C(C#N)=C/c1ccc(O)c(O)c1)c1ccccc1 [Tyrphostin B44(−)]
- ability to counter the effects of myelin inhibition on neurite outgrowth [6]: showed the greatest ability to counter the effects of myelin inhibition

Molecule: TAPI
- effect on EGFR phosphorylation subsequent to Nogo-66 treatment (EGFR): had no effect

Molecule: pertussis toxin
- effect on EGFR phosphorylation subsequent to Nogo-66 treatment (EGFR): had no effect

B1: Semaphorin3A: chemorepellant (protein, UniProt Q14563 21-771, looked up)
Semaphorin-3A: NYQNGKNNVPRLKLSYKEMLESNNVITFNGLANSSSYHTFLLDEERSRLYVGAKDHIFSFDLVNIKDFQKIVWPVSYTRRDECKWAGKDILKECANFIKVLKAYNQTHLYACGTGAFHPICTYIEIGHHPEDNIFKLENSHFENGRGKSPYDPKLLTASLLIDGELYSGTAADFMGRDFAIFRTLGHHHPIRTEQHDSRWLNDPKFISAHLISESDNPEDDKVYFFFRENAIDGEHSGKATHARIGQICKNDFGGHRSLVNKWTTFLKARLICSVPGPNGIDTHFDELQDVFLMNFKDPKNPVVYGVFTTSSNIFKGSAVCMYSMSDVRRVFLGPYAHRDGPNYQWVPYQGRVPYPRPGTCPSKTFGGFDSTKDLPDDVITFARSHPAMYNPVFPMNNRPIVIKTDVNYQFTQIVVDRVDAEDGQYDVMFIGTDVGTVLKVVSIPKETWYDLEEVLLEEMTVFREPTAISAMELSTKQQQLYIGSTAGVAQLPLHRCDIYGKACAECCLARDPYCAWDGSACSRYFPTAKRRTRRQDIRNGDPLTHCSDLHHDNHHGHSPEERIIYGVENSSTFLECSPKSQRALVYWQFQRRNEERKEEIRVDDHIIRTDQGLLLRSLQQKDSGNYLCHAVEHGFIQTLLKVTLEVIDTEHLEELLHKDDDGDGSKTKEMSNSMTPSQKVWYRDFMQLINHPNLNTMDEFCEQVWKRDRKQRRQRPGHTPGNSNKWKHLQENKKGRNRRTHEFERAPRSV
- induction of EGFR phosphorylation (EGFR): neither a control alkaline phosphatase (AP) protein nor the chemorepellant Semaphorin3A (Sema3A) induced detectable levels

B2: OMgp: recombinant soluble myelin inhibitor, oligodendrocyte myelin glycoprotein (protein, UniProt P23515 25-417, looked up)
Oligodendrocyte-myelin …: ICPLQCICTERHRHVDCSGRNLSTLPSGLQENIIHLNLSYNHFTDLHNQLTQYTNLRTLDISNNRLESLPAHLPRSLWNMSAANNNIKLLDKSDTAYQWNLKYLDVSKNMLEKVVLIKNTLRSLEVLNLSSNKLWTVPTNMPSKLHIVDLSNNSLTQILPGTLINLTNLTHLYLHNNKFTFIPDQSFDQLFQLQEITLYNNRWSCDHKQNITYLLKWMMETKAHVIGTPCSTQISSLKEHNMYPTPSGFTSSLFTVSGMQTVDTINSLSVVTQPKVTKIPKQYRTKETTFGATLSKDTTFTSTDKAFVPYPEDTSTETINSHEAAAATLTIHLQDGMVTNTSLTSSTKSSPTPMTLSITSGMPNNFSEMPQQSTTLNLWREETTTNVKTPLPS
- induction of EGFR phosphorylation (EGFR): triggered EGFR phosphorylation as early as 1 min post-stimulation
